Reference: patent publication US5484584A, “Therapeutic and diagnostic use of modified polymeric microcapsules” (priority 1992, dated 1996)

Test: In vivo tissue distribution of 131I-ethyliopanoate loaded microcapsules after i.v. injection
Design: species or system rat
Conditions: rats, 5 uCi radiotracer
Method: PBLG and estrone-PBLG microcapsules loaded with [^131 I]ethyliopanoate (5.7 μCi in […] of water) were administered to rats in the tail vein. Rats (N=3/group) were sacrificed at 1, 3, 6, and 24 hours after injection. The percentage of injected dose in an organ or tissue was determined by a gamma counter.
Estrone conjugated poly-benzyl-L-glutamate microcapsules loaded with ^131 I-labeled ethyliopanoate were injected into rats (three per group) via the tail-vein (5.7 μCi in 0.3 ml water). Control groups were given only the ^131 I-labeled iopanoic acid. Rats were sacrificed at 1, 3, 6 and 24 hours post injection. The percent of injected dose per organ or per tissue weight was determined by a COBRA Auto-gamma counter (Packard, Meridien, Conn.).

CCOC(=O)C(CC)Cc1c(I)cc(I)c(N)c1I (stereo not drawn) [IOPA, ethyliopanoate]
UTERUS TO MUSCLE RATIO (1 hr): 2.92 ± 0.464
UTERUS TO MUSCLE RATIO (3 hrs): 3.60 ± 0.346
UTERUS TO MUSCLE RATIO (6 hrs): 3.47 ± 0.122
